This is an account of results in patent US8048879B2, “Substituted 4,5,6,7-tetrahydro-isoxazolo[4,5-c]pyridine compounds and use thereof for producing medicaments” (Gruenenthal GmbH, priority 2005, dated 2011).

Experiment [1] concerns the target T1, NA transporter (Rattus norvegicus, UniProt Q9WTR4).
T1 construct: from tissue; host or cells: rat brain (hypothalamus), synaptosomes, P2 fraction
As to the kind of experiment: Noradrenalin (NA) uptake inhibition, synaptosomes from rat brain (hypothalamus). It is filed as biochemical. The text has this: b) Method for Determining Noradrenalin and 5-HT Uptake Inhibition:
Synaptosomes from rat brain regions are freshly isolated for in vitro studies, as described in the publication “The isolation of nerve endings from brain” by E. G. Gray and V. P. Whittaker, J. Anatomy 96, pages 79-88, 1962. The corresponding literature description is hereby introduced as a reference and is deemed to be part of the disclosure.
The tissue (hypothalamus for the determination of noradrenalin uptake inhibition and medulla and pons for the determination of 5-HT uptake inhibition) is homogenised in ice-cooled 0.32 M sucrose (100 mg of tissue/1 mL) in a glass homogeniser with Teflon pestle using five complete up and down strokes at 840 revolutions/minute.
The homogenate is centrifuged at 4° C. for 10 minutes at 1000 g. After subsequent centrifugation at 17000 g for 55 minutes, the synaptosomes (P2 fraction) are obtained, which are resuspended in 0.32 M […] (0.5 mL/100 mg of original weight).
The particular uptake is measured in a 96-well microtitre plate. The volume is 250 μL and the incubation proceeds at room temperature (approx. 20-25° C.) under an O2 atmosphere.
The incubation time is 7.5 minutes for [^3H]-NA and 5 minutes for [^3H]-5-HT. The 96 samples are then filtered through a Unifilter GF/B® microtitre plate (Packard) and washed with 200 mL of incubated buffer using a “Brabdel MPXRI-96T Cell-Harvester”. The Unifilter GF/B plate is dried for 1 hour at 55° C. The plate is then sealed with a Back Seal® (Packard) and 35 μL of scintillation fluid are added per well (Ultima Gold®, Packard). After sealing with a top Seal® (Packard) and establishing an equilibrium (around 5 hours), radioactivity is determined in a “Trilux 1450 Microbeta” (Wallac).
The quantity of protein used in the above determination corresponds to the values known from the literature, as for example described in “Protein measurement with the folin phenol reagent”, Lowry et al., J. Biol. Chem., 193, 265-275, 1951.
A detailed description of the method may additionally be found in the literature, for example in M. Ch. Frink, H.-H. Hennies, W. Engelberger, M. Haurand and B. Wilffert (1996) Arzneim.-Forsch./Drug Res. 46 (III), 11, 1029-1036.
The following characteristics were determined for the NA or 5-HT transporter: […]

In experiment [2] the target is T2, 5-HT transporter (Rattus norvegicus, UniProt P31652).
T2 construct: from tissue; host or cells: rat brain (medulla and pons), synaptosomes, P2 fraction
T2 sequence (P31652 whole entry): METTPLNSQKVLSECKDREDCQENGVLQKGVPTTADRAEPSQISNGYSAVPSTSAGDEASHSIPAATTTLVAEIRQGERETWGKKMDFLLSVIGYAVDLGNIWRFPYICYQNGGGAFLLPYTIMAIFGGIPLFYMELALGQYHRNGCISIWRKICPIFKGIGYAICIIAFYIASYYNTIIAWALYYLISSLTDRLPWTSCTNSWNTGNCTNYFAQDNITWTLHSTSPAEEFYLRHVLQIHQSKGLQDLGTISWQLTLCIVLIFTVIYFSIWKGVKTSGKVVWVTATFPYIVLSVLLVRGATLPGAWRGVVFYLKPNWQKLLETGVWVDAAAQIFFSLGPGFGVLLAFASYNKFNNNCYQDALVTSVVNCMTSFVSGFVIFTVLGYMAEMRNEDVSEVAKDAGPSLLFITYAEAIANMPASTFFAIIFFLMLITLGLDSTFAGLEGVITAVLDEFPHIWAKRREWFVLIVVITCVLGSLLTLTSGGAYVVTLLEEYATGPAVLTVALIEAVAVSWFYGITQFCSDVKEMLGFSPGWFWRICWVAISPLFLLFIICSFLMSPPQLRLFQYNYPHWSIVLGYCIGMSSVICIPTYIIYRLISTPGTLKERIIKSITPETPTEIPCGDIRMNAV
The experiment is described as follows: 5-HT uptake inhibition, synaptosomes from rat brain (medulla and pons). It is filed as biochemical. The method in brief: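 Freshly isolated rat brain synaptosomes (P2 fraction): hypothalamus for NA uptake, medulla/pons for 5-HT uptake. Uptake of [3H]-NA (7.5 min) or [3H]-5-HT (5 min) at room temperature under O2, stopped by filtration over GF/B. Retained radioactivity counted by scintillation.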

As a reminder, the inhibition is the change of the read-out against control, counted positive when it falls. A lower inhibition goes with a weak effect.

T1 sequence (Q9WTR4 1-597): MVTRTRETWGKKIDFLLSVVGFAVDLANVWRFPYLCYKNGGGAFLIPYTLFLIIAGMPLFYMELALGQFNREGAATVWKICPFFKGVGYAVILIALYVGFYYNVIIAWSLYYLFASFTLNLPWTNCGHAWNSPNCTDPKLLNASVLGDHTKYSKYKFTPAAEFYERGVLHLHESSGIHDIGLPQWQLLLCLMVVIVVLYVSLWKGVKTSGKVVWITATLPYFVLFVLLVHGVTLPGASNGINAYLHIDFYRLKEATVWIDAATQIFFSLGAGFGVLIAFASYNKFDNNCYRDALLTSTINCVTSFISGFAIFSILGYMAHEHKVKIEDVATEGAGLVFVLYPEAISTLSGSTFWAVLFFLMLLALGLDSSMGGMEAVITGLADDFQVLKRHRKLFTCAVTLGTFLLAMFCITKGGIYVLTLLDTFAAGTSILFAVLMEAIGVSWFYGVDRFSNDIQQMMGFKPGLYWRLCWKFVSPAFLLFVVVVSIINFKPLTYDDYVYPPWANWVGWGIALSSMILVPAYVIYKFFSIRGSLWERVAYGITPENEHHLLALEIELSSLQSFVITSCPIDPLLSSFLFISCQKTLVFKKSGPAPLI

`CCC(C)(CC(=O)O)CC(=O)N1CCc2onc(C(=O)Nc3ccccc3)c2C1` (stereo not shown) [Example 29, 3-ethyl-3-methyl-5-oxo-5-(3-phenylcarbamoyl-6,7-dihydro-4H-isoxazolo[4,5-c]pyridin-5-yl)-pentanoic acid] displayed an inhibition at 10 µM in experiment [1] of 44%.
Same read-out and setting: in the case of `CC(CNC(=O)c1noc2c1CN(S(=O)(=O)c1cccs1)CC2)c1ccccc1` (stereo not shown) [Example 104, 5-(thiophene-2-sulfonyl)-4,5,6,7-tetrahydro-isoxazolo[4,5-c]pyridine-3-carboxylic acid (2-phenyl-propyl) amide] it was 77%; in that of `COc1ccc(CNC(=S)N2CCc3onc(C(=O)NC4CCCC4)c3C2)cc1` [Example 127, 5-(4-methoxy-benzylthiocarbamoyl)-4,5,6,7-tetrahydro-isoxazolo[4,5-c]pyridine-3-carboxylic acid cyclopentyl amide], 63%.
Take `COc1ccc(Cl)cc1NC(=O)N1CCc2onc(C(=O)NCC(C)C)c2C1` [Example 24, 6,7-dihydro-4H-isoxazolo[4,5-c]pyridine-3,5-dicarboxylic acid 5-[(5-chloro-2-methoxyphenyl) amide] 3-(isobutyl-amide)]: the “NA Uptake (rat), 10 μM, % inhibition” value in experiment [1] was 51%.
With `CN(C)CCNC(=O)c1noc2c1CN(C(=O)c1cccc(SC(F)F)c1)CC2` [Example 93, 5-(3-difluoromethylsulfanyl-benzoyl)-4,5,6,7-tetrahydro-isoxazolo[4,5-c]pyridine-3-carboxylic acid (2-dimethylamino-ethyl) amide], in experiment [2], the inhibition at 10 µM came to 88%.
Same read-out and setting: as for `Cc1ccc(CNC(=O)c2noc3c2CN(C(=O)C(C)(C)CC(=O)O)CC3)o1` [Example 31, 3,3-dimethyl-4-{3-[(5-methyl-furan-2-ylmethyl)-carbamoyl]-6,7-dihydro-4H-isoxazolo[4,5-c]pyridin-5-yl}-4-oxo-butanoic acid], the figure is 57%.
Molecule `CN(C)CCNC(=O)c1noc2c1CN(C(=O)C=Cc1ccccc1)CC2` [Example 36, 5-(3-phenyl-acryloyl)-4,5,6,7-tetrahydro-isoxazolo[4,5-c]pyridine-3-carboxylic acid (2-dimethylamino-ethyl) amide] displayed an inhibition at 10 µM in experiment [2] of 72%.
As to `COc1ccc(C(C)NC(=O)c2noc3c2CN(S(=O)(=O)c2ccc(OC)cc2)CC3)cc1` (stereo not shown) [Example 84, 5-(4-methoxy-benzenesulfonyl)-4,5,6,7-tetrahydro-isoxazolo[4,5-c]pyridine-3-carboxylic acid [1-(4-methoxyphenyl)-ethyl] amide], in experiment [2], the inhibition at 10 µM came to 69%.
`Cc1cc(C(=O)N2CCc3onc(C(=O)NCCN4CCOCC4)c3C2)ccc1Br` [Example 90, 5-(4-bromo-3-methyl-benzoyl)-4,5,6,7-tetrahydro-isoxazolo[4,5-c]pyridine-3-carboxylic acid (2-morpholin-4-yl-ethyl) amide] showed an inhibition at 10 µM in experiment [2] of 65%.
Take `CSc1ccc(CN(Cc2ccco2)C(=O)c2noc3c2CN(S(=O)(=O)N(C)C)CC3)cc1` [Example 89, 5-dimethylsulfamoyl-4,5,6,7-tetrahydro-isoxazolo[4,5-c]pyridine-3-carboxylic acid furan-2-ylmethyl-(4-methylsulfanyl-benzyl) amide]: in experiment [2], the inhibition at 10 µM was found to be 64%.
On to `CCOc1ccc(NC(=O)N2CCc3onc(C(=O)NCc4ccc(F)cc4)c3C2)cc1` [Example 21, 6,7-dihydro-4H-isoxazolo[4,5-c]pyridine-3,5-dicarboxylic acid 5-[(4-ethoxy-phenyl) amide] 3-(4-fluorobenzyl amide)], for which the “5-HT uptake (rat), 10 μM, % inhibition” value in experiment [2] is given as 56%.
Consider `CN(C)S(=O)(=O)N1CCc2onc(C(=O)N(CCC#N)Cc3cccnc3)c2C1` [Example 70, 5-dimethylsulfamoyl-4,5,6,7-tetrahydro-isoxazolo[4,5-c]pyridine-3-carboxylic acid (2-cyano-ethyl)-pyridin-3-ylmethyl-amide], for which the inhibition at 10 µM in experiment [2] was found to be 63%.
As to `CN(C)S(=O)(=O)N1CCc2onc(C(=O)NCCc3ccc(Cl)cc3)c2C1` [Example 76, 5-dimethylsulfamoyl-4,5,6,7-tetrahydro-isoxazolo[4,5-c]pyridine-3-carboxylic acid [2-(4-chlorophenyl)-ethyl] amide], in experiment [2], 10 µM produced 63% inhibition.
Same read-out and setting: in the case of `Cc1cccc2c(CCNC(=O)c3noc4c3CN(S(=O)(=O)c3ccc(OC(F)(F)F)cc3)CC4)c[nH]c12` [Example 100, 5-(4-trifluoromethoxy-benzenesulfonyl)-4,5,6,7-tetrahydro-isoxazolo[4,5-c]pyridine-3-carboxylic acid [2-(7-methyl-1H-indol-3-yl)-ethyl] amide] it was 83%; in that of `O=C(c1noc2c1CN(S(=O)(=O)c1cc(Cl)ccc1Cl)CC2)N1CCC(CNC(=O)C(F)(F)F)CC1` [Example 83, N-{1-[5-(2,5-dichloro-benzenesulfonyl)-4,5,6,7-tetrahydro-isoxazolo[4,5-c]pyridine-3-carbonyl]-piperidin-4-ylmethyl}-2,2,2-trifluoroacetamide], 61%.
Still for that read-out and setting: as for `CCOC(=O)CCNC(=O)c1noc2c1CN(C(=O)Nc1cc(OC)ccc1OC)CC2` [Example 20, 3-{[5-(2,5-dimethoxy-phenylcarbamoyl)-4,5,6,7-tetrahydro-isoxazolo[4,5-c]pyridine-3-carbonyl]-amino}-propionic acid ethyl ester], the figure is 51%.
On to `Cc1ccc(CNC(=O)c2noc3c2CN(C(=S)Nc2c(F)c(F)c(F)c(F)c2F)CC3)o1` [Example 133, 5-pentafluorophenylthiocarbamoyl-4,5,6,7-tetrahydro-isoxazolo[4,5-c]pyridine-3-carboxylic acid (5-methyl-furan-2-ylmethyl) amide], for which the “5-HT uptake (rat), 10 μM, % inhibition” value in experiment [2] turned out to be 63%.
For the molecule `C#CCNC(=O)c1noc2c1CN(C(=O)Nc1cccc(F)c1)CC2` [Example 19, 6,7-dihydro-4H-isoxazolo[4,5-c]pyridine-3,5-dicarboxylic acid 5-[(3-fluorophenyl) amide] 3-prop-2-ynyl amide], the “5-HT uptake (rat), 10 μM, % inhibition” value in experiment [2] came out at 50%.
For the molecule `Cc1nn(-c2ccccc2)nc1C(=O)N1CCc2onc(C(=O)NCc3cccnc3)c2C1` [Example 46, 5-(5-methyl-2-phenyl-2H-[1,2,3]triazole-4-carbonyl)-4,5,6,7-tetrahydro-isoxazolo[4,5-c]pyridine-3-carboxylic acid (pyridin-3-ylmethyl) amide], in experiment [2], the inhibition at 10 µM was determined as 79%.
In the case of `CC1C(NC(=O)c2noc3c2CN(S(=O)(=O)N(C)C)CC3)CC2CC1C2(C)C` (stereo not shown) [Example 60, 5-dimethylsulfamoyl-4,5,6,7-tetrahydro-isoxazolo[4,5-c]pyridine-3-carboxylic acid (2,6,6-trimethyl-bicyclo[3.1.1]hept-3-yl) amide], testing at 10 µM in experiment [2] gave an inhibition of 81%.
For `Cc1ccc(C(=O)N2CCc3onc(C(=O)NCCN(C)C)c3C2)c(F)c1F` [Example 74], in experiment [2], the “5-HT uptake (rat), 10 μM, % inhibition” value came out at 62%.
In experiment [2], `CC(C)CNC(=O)c1noc2c1CN(C(=O)c1cc(C(F)(F)F)ccc1Cl)CC2` [Example 116, 5-(2-chloro-5-trifluoromethyl-benzoyl)-4,5,6,7-tetrahydro-isoxazolo[4,5-c]pyridine-3-carboxylic acid isobutyl amide] displayed an inhibition at 10 µM of 77%.
Regarding `C#CCNC(=O)c1noc2c1CN(C(=O)c1cccc(C)c1)CC2` [Example 108, 5-(3-methyl-benzoyl)-4,5,6,7-tetrahydro-isoxazolo[4,5-c]pyridine-3-carboxylic acid prop-2-ynyl amide], in experiment [2], at 10 µM the inhibition was 88%.
Same read-out and setting: as for `CC(C)CNC(=O)c1noc2c1CN(C(=O)C(NC(=O)OCc1ccccc1)c1ccccc1)CC2` (stereo not shown) [Example 126, [2-(3-isobutylcarbamoyl-6,7-dihydro-4H-isoxazolo[4,5-c]pyridin-5-yl)-2-oxo-1-phenyl-ethyl]-carbamic acid benzyl ester], the figure is 80%.
The same measure, in the same setting: in the case of `O=C(NC(=S)N1CCc2onc(C(=O)NCCN3CCCC3)c2C1)c1ccccc1` [Example 128, 5-benzoylaminocarbothioyl-4,5,6,7-tetrahydro-isoxazolo[4,5-c]pyridine-3-carboxylic acid (2-pyrrolidin-1-yl-ethyl) amide] it was 80%.
